IC50 data for 55 molecules are collected here from PubChem BioAssay AID1159557 (GlaxoSmithKline (GSK), 2015).

Molecules are shown by their SMILES. Active and inactive are the calls of the source. How the calls were made is not given here.

This experiment concerns Trypanosoma brucei growth inhibition. Nature of the experiment: T. brucei growth inhibition (AID 1159557).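 Further: parasites exposed to compound for 48 h before the resazurin readout.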
On to `O=C(Nc1ccc(Br)c(Cl)c1)Nc1ccc2c(c1)OCO2`, for which the IC50 was 7.9 µM.
As for `O=C(NCCCn1cnc2ccccc21)c1ccc(NC(=O)c2ccco2)cc1`, the IC50 was 0.2 µM.
Consider `O=C(COc1ccccc1)Nc1ccccc1C(=O)Nc1nccs1`, for which the IC50 was 0.4 µM.
As for `Cc1nn(-c2ccccc2)nc1CNC(=O)CN(Cc1ccccn1)Cc1ccccn1`, the IC50 was 32 µM.
On to `COc1cccc(CCNC(=O)C(c2cn[nH]c2)N2CCN(c3ccc(Cl)cc3)CC2)c1` (stereo not given), for which the IC50 is 20 µM.
Turning to `CC(C)COC(=O)Nc1ccc(N2CCC(CNS(=O)(=O)c3ccccc3)CC2)c(F)c1`, the half-inhibitory concentration (IC50) was 2.5 µM.
Consider `O=C(NCCNc1noc(-c2ccc([N+](=O)[O-])cc2)n1)c1ccc(Cl)cc1`, for which the IC50 is 3.2 µM.
On to `CCN(CC)S(=O)(=O)c1ccc(C(=O)Nc2cc(C)nn2-c2nc(C)c(C)c(=O)[nH]2)cc1`, for which the half-inhibitory concentration (IC50) was 0.32 µM.
To `O=C(NCCc1ccccn1)C(c1cn[nH]c1)N1CCN(c2ccc(Cl)c(Cl)c2)CC1` (stereo not given) belongs 13 µM; to `Cc1nnnn1-c1cccc(C(=O)N2CCC[C@@]3(C)c4ncncc4CCC23)c1` (stereo not given in full), > 40 µM (inactive).
For the molecule `O=S(=O)(NCC(c1cccnc1)N1CCN(c2ccc(F)cc2)CC1)c1cccs1` (stereo not given), the IC50 is > 40 µM (inactive).
To `CCn1c(NC(=O)Cc2ccc(F)cc2)nc2ccccc21` belongs 3.2 µM; to `CC(c1ccc2c(c1)CCCC2)N(C)c1ncc2c(N)nc(N)nc2n1` (stereo not given), 16 µM; to `CCC(=O)N1N=C(c2ccc3c(c2)CCCC3)Sc2c1ncn2C(=O)CC`, 16 µM.
To `CCOc1ccc(NC(=O)C=Cc2ccc(CC)o2)cc1` belongs 16 µM; to `COc1cc(-c2nc(N3CCOCC3)sc2-c2ccnc(NC3CCOCC3)n2)ccc1Cl`, 16 µM; to `CS(=O)(=O)N1CCC(Nc2ncc(Br)c(Nc3cccc(F)c3C(N)=O)n2)CC1`, 0.01 µM.
As for `Cn1c(CN2CCN(c3ncc(C(F)(F)F)cc3Cl)CC2)nc2ccncc21`, the IC50 was 6.3 µM.
As to `Cc1nn(C)c(Cl)c1CN(Cc1cccnc1)Cc1ccsc1`, the IC50 is > 40 µM (inactive).
Take `Cc1cccc(N2CCCN(Cc3c[nH]c4ccccc34)CC2)n1`: the IC50 is 13 µM.
To `CCCc1cc(C(=O)Nc2ncc(-c3cccc(Br)c3)n2C)n[nH]1` belongs 2.5 µM; to `O=C(NCCc1cccnc1)c1ccc(-c2ccccc2F)o1`, 32 µM; to `OC1CCC(Nc2nccc(-c3sc(C4CCOCC4)nc3-c3ccc(F)c(F)c3)n2)CC1` (stereo not given), 2 µM.
Regarding `CCN(CC)S(=O)(=O)c1ccc(Cn2nc(C(=O)Nc3ccncn3)c3ccccc32)cc1`, the IC50 is 32 µM.
Turning to `Cc1ccccc1OCC(=O)N1CCCN(c2cccnn2)CC1`, the IC50 is > 40 µM (inactive).
To `c1ccc(Nc2nc3ccccc3[nH]2)nc1` belongs 16 µM.
To `c1ccc2sc(Nc3nc4ncccc4[nH]3)nc2c1` belongs 1 µM; to `CCN(CC)c1ncc(C(=O)c2ccc([N+](=O)[O-])o2)s1`, 0.1 µM.
Regarding `CCCCc1cc(Nc2cc(C3CCC3)[nH]n2)nc(N2CCC2C(N)=O)n1` (stereo not given), the IC50 was 0.13 µM.
To `CC(CNS(=O)(=O)c1ccc(OC(F)F)cc1)c1ccc(NC(=O)c2ccncc2)cc1` (stereo not given) belongs 7.9 µM; to `COc1ccc(C2=NCC(CSc3nnc(-c4ccc5c(c4)OCO5)o3)S2)cc1` (stereo not given), 10 µM.
With `O=C(CCCn1cnc([N+](=O)[O-])n1)Nc1cccc(Cl)c1`, the IC50 was 5 µM.
Turning to `CCCc1nc2nc(N)nc(N)c2cc1CC`, the IC50 is 20 µM.
Take `N#Cc1nc(C=Cc2ccccc2)oc1NCc1cccnc1`: the IC50 was 16 µM.
To `CCOc1ccccc1C(=O)Nc1nnc(-c2ccc3c(c2)OCO3)s1` belongs > 40 µM (inactive).
`CN(C)S(=O)(=O)c1cccc(CSc2nnc(-c3ccc4c(c3)OCO4)o2)c1`: the IC50 was 32 µM.
On to `Cc1cc(Br)cc(C(=O)c2c(C(C)C)c(=O)[nH]c(=O)n2Cc2ccnc(N)c2)c1`, for which the IC50 is 13 µM.
Consider `O=c1[nH]c(C=Cc2cccc(OCCOc3ccccc3)c2)nc(O)c1[N+](=O)[O-]`, for which the IC50 was 10 µM.
To `COc1ccc(-c2nc3ncccc3o2)cc1NC(=O)c1cccs1` belongs 1.3 µM.
As for `CNc1cc(C)nc(C2CN(C(=O)c3n[nH]c4ccccc34)CCO2)c1` (stereo not given), the IC50 was 20 µM.
To `Cc1cc(Br)sc1CNCCCNc1cc(=O)c2ccccc2[nH]1` belongs 0.063 µM.
To `Cc1ccc(NC(=O)c2ccc([N+](=O)[O-])s2)cc1S(=O)(=O)N1CCOCC1` belongs 0.25 µM; to `NC(=O)c1ccc(-c2cccc(OCCN3CCN(C4CCCCC4)CC3)c2)cc1`, 16 µM.
With `CCCn1c(NC(=O)Cc2ccc(Cl)cc2)nc2ccccc21`, the IC50 is 2 µM.
On to `O=C(NCC(c1cccnc1)N1CCc2ccccc2C1)C(=O)Nc1cccc(Cl)c1` (stereo not given), for which the IC50 was 16 µM.
`O=C(CCc1ccc(-c2ccccc2)o1)N1CCN(c2ccc(O)cc2)CC1`: the IC50 was 25 µM.
`Cc1[nH]nc(C(F)(F)F)c1NC(=O)CCn1cc(Cl)c([N+](=O)[O-])n1`: the IC50 is 0.5 µM.
To `O=C(NCC(c1cccs1)N1CCOCC1)c1ccc([N+](=O)[O-])o1` (stereo not given) belongs 0.32 µM.
To `CCc1cccc(CC)c1-n1c(SCC(=O)N2CC(=O)Nc3ccccc32)nnc1-c1cccnc1` belongs 0.5 µM; to `Cc1cc(N2CCc3ccccc3C2)nc(Nc2ccc(S(=O)(=O)N3CCOCC3)cc2)n1`, 32 µM.
Regarding `CCCn1c(NC(=O)CCn2cc(Br)cn2)nc2ccccc21`, the IC50 was 7.9 µM.
To `O=C(CSc1ccc(-c2ccccn2)nn1)Nc1ccc(Cl)cc1` belongs 10 µM; to `Cc1nn(-c2nc3ccccc3s2)c2c1C(c1ccc(OCC(N)=O)cc1)SCC(=O)N2` (stereo not given), 0.02 µM; to `CCOc1ccc(N(C)S(=O)(=O)c2ccc3[nH]cc(C(=O)NC4CCCC4)c(=O)c3c2)cc1`, 0.25 µM.
`Cc1cc(N(C)C)nc(Nc2ccccc2C)n1`: the IC50 is 32 µM.
